The source made the active and inactive calls. The rule behind the calls is not given here.
Test system: not listed separately
Assay: Cytotoxicity against BAECs assessed as decrease in total intracellular LDH content at 15 mM measured after 3 hrs by LDH assay relative to vehicle control
Type: cell-based, Bos taurus
Design: scale not given: the % may be the effect or the level left
Conditions: cattle, baec, 15000 µM

Structure (SMILES)	Activity
CCOP(=O)(OCC)C(C)(C)/[N+]([O-])=C/c1cccc(O)c1	26%
CCOP(=O)(OCC)C(C)(C)/[N+]([O-])=C/c1cc(O)c(O)c(O)c1	29%
CCOP(=O)(OCC)C(C)(C)/[N+]([O-])=C/c1ccc([N+](=O)[O-])cc1	53%
CCOP(=O)(OCC)C(C)(C)/[N+]([O-])=C/c1cc(O)cc(O)c1	23%

Test system: Aorta
Assay: Potentiation of SNP-induced vasorelaxant activity in Sprague-Dawley rat endothelium-intact aortic rings assessed as reduction in L-phenylephrine hydrochloride-induced contraction at 200 uM relative to SNP
Type: functional
Conditions: not given

Structure (SMILES)	Rmax
CCOP(=O)(OCC)C(C)(C)/[N+]([O-])=C/c1ccccc1C(F)(F)F	104%
CCOP(=O)(OCC)C(C)(C)/[N+]([O-])=C/c1c(C)cccc1C	105%
CCOP(=O)(OCC)C(C)(C)/[N+]([O-])=C/c1cccc(O)c1	99%
CCOP(=O)(OCC)C(C)(C)/[N+]([O-])=C/c1cc(O)c(O)c(O)c1	104%
CCOP(=O)(OCC)C(C)(C)/[N+]([O-])=C/c1ccc([N+](=O)[O-])cc1	101%
CCOP(=O)(OCC)C(C)(C)/[N+]([O-])=C/c1cc(O)cc(O)c1	98%

Test system: Aorta
Assay: Vasoprotective activity against oxidative stress-induced impairment of ACh-stimulated vasorelaxation in Sprague-Dawley rat endothelium-intact aortic rings assessed as reduction in L-phenylephrine hydrochloride-induced contraction preincubated for 10 to 20 mins in presence of xanthine-xanthine oxidase system prior to L-phenylephrine hydrochloride addition
Type: functional
Conditions: not given

Structure (SMILES)	EC50
CCOP(=O)(OCC)C(C)(C)/[N+]([O-])=C/c1cc(O)c(O)c(O)c1	0.0282 µM

Test system: Aorta
Assay: Vasoprotective activity against oxidative stress-induced impairment of ACh-stimulated vasorelaxation in Sprague-Dawley rat endothelium-intact aortic rings assessed as reduction in L-phenylephrine hydrochloride-induced contraction preincubated for 10 to 20 mins in presence of xanthine-xanthine oxidase system at 200 uM prior to L-phenylephrine hydrochloride addition relative to ACh
Type: functional
Conditions: not given

Structure (SMILES)	Rmax
CCOP(=O)(OCC)C(C)(C)/[N+]([O-])=C/c1cc(O)c(O)c(O)c1	93%

Test system: Aorta
Assay: Protection against NADPH-induced superoxide-mediated tissue damage in Sprague-Dawley rat endothelium-intact aortic rings assessed as inhibition of protein carbonyl formation at 200 uM pre-incubated for 30 mins in presence of DTC prior to NADPH addition measured after 60 mins using 7-hydrazino-4-nitrobenzo-2,1,3-oxadiazole by fluorimetric analysis
Type: functional
Conditions: not given

Structure (SMILES)	inhibition
CCOP(=O)(OCC)C(C)(C)/[N+]([O-])=C/c1c(C)cccc1C	Active
CCOP(=O)(OCC)C(C)(C)/[N+]([O-])=C/c1cccc(O)c1	Active
CCOP(=O)(OCC)C(C)(C)/[N+]([O-])=C/c1cc(O)c(O)c(O)c1	Active
CCOP(=O)(OCC)C(C)(C)/[N+]([O-])=C/c1cc(O)cc(O)c1	Active

Test system: Aorta
Assay: Protection against NADPH-induced superoxide-mediated tissue damage in Sprague-Dawley rat endothelium-intact aortic rings assessed as decomposition of methyl radical adduct preincubated for 30 mins at 200 uM in presence of DTC prior to NADPH addition after 60 mins followed by renewal of media with NADPH-compound mixture measured after 4 days by EPR spectroscopy relative to control
Type: functional
Conditions: not given

Structure (SMILES)	Activity
CCOP(=O)(OCC)C(C)(C)/[N+]([O-])=C/c1cccc(O)c1	6%
CCOP(=O)(OCC)C(C)(C)/[N+]([O-])=C/c1cc(O)c(O)c(O)c1	< 5%
CCOP(=O)(OCC)C(C)(C)/[N+]([O-])=C/c1cc(O)cc(O)c1	< 5%

Test system: Aorta
Assay: Protection against superoxide-mediated tissue damage in Sprague-Dawley rat endothelium-intact aortic rings assessed as methyl radical adduct formation preincubated for 30 mins at 200 uM in presence of DTC measured after 4 days by EPR spectroscopy
Type: functional
Conditions: not given

Structure (SMILES)	Activity
CCOP(=O)(OCC)C(C)(C)/[N+]([O-])=C/c1cccc(O)c1	inactive
CCOP(=O)(OCC)C(C)(C)/[N+]([O-])=C/c1cc(O)c(O)c(O)c1	inactive
CCOP(=O)(OCC)C(C)(C)/[N+]([O-])=C/c1cc(O)cc(O)c1	inactive

Test system: not listed separately
Assay: Induction of nitric oxide release in water using Fe2+-MGD2 as nitric oxide trap at pH 6.56 measured 70 mins post UV-photolysis in dark condition by EPR spectroscopy
Type: physicochemical
Conditions: buffer, pH 6.56, 70 min

Structure (SMILES)	Activity
CCOP(=O)(OCC)C(C)(C)/[N+]([O-])=C/c1ccccc1C(F)(F)F	Active
CCOP(=O)(OCC)C(C)(C)/[N+]([O-])=C/c1c(C)cccc1C	Active

Test system: not listed separately
Assay: Cytotoxicity against BAEC assessed as decrease in total intracellular LDH content at 15 mM measured after 1 hr by LDH assay relative to vehicle-treated control
Type: cell-based, Bos taurus
Design: scale not given: the % may be the effect or the level left
Conditions: cattle, 15000 µM

Structure (SMILES)	Activity
CCOP(=O)(OCC)C(C)(C)/[N+]([O-])=C/c1cccc(O)c1	< 10%
CCOP(=O)(OCC)C(C)(C)/[N+]([O-])=C/c1cc(O)c(O)c(O)c1	< 10%
CCOP(=O)(OCC)C(C)(C)/[N+]([O-])=C/c1ccc([N+](=O)[O-])cc1	< 10%
CCOP(=O)(OCC)C(C)(C)/[N+]([O-])=C/c1cc(O)cc(O)c1	< 10%

Test system: Aorta
Assay: Toxicity in Sprague-Dawley rat endothelium-intact aortic rings at 15 mM measured after 20 mins
Conditions: 15000 µM

Structure (SMILES)	Activity
CCOP(=O)(OCC)C(C)(C)/[N+]([O-])=C/c1ccccc1C(F)(F)F	Non-toxic
CCOP(=O)(OCC)C(C)(C)/[N+]([O-])=C/c1c(C)cccc1C	Non-toxic
CCOP(=O)(OCC)C(C)(C)/[N+]([O-])=C/c1cccc(O)c1	Non-toxic
CCOP(=O)(OCC)C(C)(C)/[N+]([O-])=C/c1cc(O)c(O)c(O)c1	Non-toxic
CCOP(=O)(OCC)C(C)(C)/[N+]([O-])=C/c1ccc([N+](=O)[O-])cc1	Non-toxic
CCOP(=O)(OCC)C(C)(C)/[N+]([O-])=C/c1cc(O)cc(O)c1	Non-toxic

Test system: Aorta
Assay: Protection against NADPH-induced superoxide-mediated tissue damage in Sprague-Dawley rat endothelium-intact aortic rings assessed as methyl radical adduct formation pre-incubated for 30 mins at 200 uM in presence of DTC prior to NADPH addition measured after 60 mins followed by renewal of media with NADPH-compound mixture measured after 20 mins in presence of DPI by EPR spectroscopy
Type: functional
Conditions: not given

Structure (SMILES)	Activity
CCOP(=O)(OCC)C(C)(C)/[N+]([O-])=C/c1cccc(O)c1	inactive
CCOP(=O)(OCC)C(C)(C)/[N+]([O-])=C/c1cc(O)c(O)c(O)c1	inactive
CCOP(=O)(OCC)C(C)(C)/[N+]([O-])=C/c1cc(O)cc(O)c1	inactive

Test system: not listed separately
Assay: Antioxidant activity assessed as DPPH scavenging activity measured after 3 mins by spectrophotometric method
Type: physicochemical
Conditions: not given

Structure (SMILES)	EC50
CCOP(=O)(OCC)C(C)(C)/[N+]([O-])=C/c1ccccc1C(F)(F)F	> 1000 µM
CCOP(=O)(OCC)C(C)(C)/[N+]([O-])=C/c1c(C)cccc1C	> 1000 µM
CCOP(=O)(OCC)C(C)(C)/[N+]([O-])=C/c1cccc(O)c1	> 1000 µM
CCOP(=O)(OCC)C(C)(C)/[N+]([O-])=C/c1cc(O)c(O)c(O)c1	19 µM
CCOP(=O)(OCC)C(C)(C)/[N+]([O-])=C/c1ccc([N+](=O)[O-])cc1	> 1000 µM
CCOP(=O)(OCC)C(C)(C)/[N+]([O-])=C/c1cc(O)cc(O)c1	> 1000 µM

Test system: not listed separately
Assay: Antioxidant activity assessed as AAPH free radical scavenging activity measured as trolox equivalent by TRAP assay
Type: physicochemical
Conditions: not given

Structure (SMILES)	Activity
CCOP(=O)(OCC)C(C)(C)/[N+]([O-])=C/c1ccccc1C(F)(F)F	0.02 equiv
CCOP(=O)(OCC)C(C)(C)/[N+]([O-])=C/c1c(C)cccc1C	0.02 equiv
CCOP(=O)(OCC)C(C)(C)/[N+]([O-])=C/c1cccc(O)c1	0.1 equiv
CCOP(=O)(OCC)C(C)(C)/[N+]([O-])=C/c1cc(O)c(O)c(O)c1	1.46 equiv
CCOP(=O)(OCC)C(C)(C)/[N+]([O-])=C/c1ccc([N+](=O)[O-])cc1	0.02 equiv
CCOP(=O)(OCC)C(C)(C)/[N+]([O-])=C/c1cc(O)cc(O)c1	0.7 equiv

Test system: not listed separately
Assay: Antioxidant activity assessed as inhibition of […]-xanthine oxidase system-mediated superoxide formation measured over 7 mins by lucigenin-based chemiluminescence analysis
Type: physicochemical
Conditions: not given

Structure (SMILES)	IC50
CCOP(=O)(OCC)C(C)(C)/[N+]([O-])=C/c1ccccc1C(F)(F)F	4.2 µM
CCOP(=O)(OCC)C(C)(C)/[N+]([O-])=C/c1c(C)cccc1C	350 µM
CCOP(=O)(OCC)C(C)(C)/[N+]([O-])=C/c1cccc(O)c1	123 µM
CCOP(=O)(OCC)C(C)(C)/[N+]([O-])=C/c1cc(O)c(O)c(O)c1	0.9 µM
CCOP(=O)(OCC)C(C)(C)/[N+]([O-])=C/c1ccc([N+](=O)[O-])cc1	9.3 µM
CCOP(=O)(OCC)C(C)(C)/[N+]([O-])=C/c1cc(O)cc(O)c1	187 µM

Molecular target: Xanthine dehydrogenase/oxidase (Homo sapiens, UniProt P47989)
Assay: Inhibition of xanthine oxidase (unknown origin) using xanthine as substrate assessed as inhibition of uric acid formation at 1 to 100 uM after 30 mins by spectrophotometric method
Conditions: 0.5 h

Sequence of Xanthine dehydrogenase/oxidase (P47989 whole entry): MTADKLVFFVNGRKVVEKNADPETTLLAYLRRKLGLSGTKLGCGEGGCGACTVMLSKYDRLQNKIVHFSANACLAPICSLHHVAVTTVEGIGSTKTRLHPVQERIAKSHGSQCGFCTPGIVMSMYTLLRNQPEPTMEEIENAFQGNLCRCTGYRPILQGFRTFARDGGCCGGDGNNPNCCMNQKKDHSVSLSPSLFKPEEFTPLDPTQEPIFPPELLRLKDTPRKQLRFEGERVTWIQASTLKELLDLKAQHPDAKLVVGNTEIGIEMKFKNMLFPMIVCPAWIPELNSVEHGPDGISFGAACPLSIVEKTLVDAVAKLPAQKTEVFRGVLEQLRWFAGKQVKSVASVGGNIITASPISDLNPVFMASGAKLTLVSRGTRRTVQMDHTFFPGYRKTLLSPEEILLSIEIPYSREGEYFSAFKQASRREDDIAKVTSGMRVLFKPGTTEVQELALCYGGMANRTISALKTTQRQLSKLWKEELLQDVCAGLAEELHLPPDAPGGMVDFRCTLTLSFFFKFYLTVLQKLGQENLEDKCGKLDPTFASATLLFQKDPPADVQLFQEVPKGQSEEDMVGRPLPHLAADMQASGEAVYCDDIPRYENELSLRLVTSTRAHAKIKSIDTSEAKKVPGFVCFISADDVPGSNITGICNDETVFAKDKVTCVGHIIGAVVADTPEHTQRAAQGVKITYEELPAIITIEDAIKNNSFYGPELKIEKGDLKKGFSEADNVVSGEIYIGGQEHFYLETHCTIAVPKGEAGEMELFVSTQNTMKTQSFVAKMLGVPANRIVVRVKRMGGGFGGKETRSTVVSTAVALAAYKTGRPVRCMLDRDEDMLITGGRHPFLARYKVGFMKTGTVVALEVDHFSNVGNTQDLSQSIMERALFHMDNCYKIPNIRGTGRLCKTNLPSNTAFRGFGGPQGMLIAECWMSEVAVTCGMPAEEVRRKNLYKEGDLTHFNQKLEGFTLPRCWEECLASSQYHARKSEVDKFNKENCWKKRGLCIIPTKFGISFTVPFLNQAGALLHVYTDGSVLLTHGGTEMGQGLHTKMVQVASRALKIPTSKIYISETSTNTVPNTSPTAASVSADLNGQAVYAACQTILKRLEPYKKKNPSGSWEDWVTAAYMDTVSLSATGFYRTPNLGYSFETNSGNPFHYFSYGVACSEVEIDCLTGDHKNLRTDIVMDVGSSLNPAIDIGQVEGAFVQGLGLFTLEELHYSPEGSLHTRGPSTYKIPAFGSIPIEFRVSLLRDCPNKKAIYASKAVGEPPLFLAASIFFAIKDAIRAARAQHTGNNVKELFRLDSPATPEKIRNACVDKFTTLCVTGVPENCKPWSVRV

Structure (SMILES)	inhibition (INH)
CCOP(=O)(OCC)C(C)(C)/[N+]([O-])=C/c1ccccc1C(F)(F)F	Not Active
CCOP(=O)(OCC)C(C)(C)/[N+]([O-])=C/c1c(C)cccc1C	Not Active
CCOP(=O)(OCC)C(C)(C)/[N+]([O-])=C/c1cccc(O)c1	Not Active
CCOP(=O)(OCC)C(C)(C)/[N+]([O-])=C/c1cc(O)c(O)c(O)c1	Not Active
CCOP(=O)(OCC)C(C)(C)/[N+]([O-])=C/c1ccc([N+](=O)[O-])cc1	Not Active
CCOP(=O)(OCC)C(C)(C)/[N+]([O-])=C/c1cc(O)cc(O)c1	Not Active

Test system: A549
Assay: Cytotoxicity against human A549 cells assessed as reduction in cell viability measured after 48 hrs by FMCA assay
Type: cell-based
Conditions: A549, 48 h

Structure (SMILES)	IC50
CCOP(=O)(OCC)C(C)(C)/[N+]([O-])=C/c1ccccc1C(F)(F)F	2200 µM
CCOP(=O)(OCC)C(C)(C)/[N+]([O-])=C/c1c(C)cccc1C	4700 µM
CCOP(=O)(OCC)C(C)(C)/[N+]([O-])=C/c1cccc(O)c1	7600 µM
CCOP(=O)(OCC)C(C)(C)/[N+]([O-])=C/c1cc(O)c(O)c(O)c1	600 µM
CCOP(=O)(OCC)C(C)(C)/[N+]([O-])=C/c1ccc([N+](=O)[O-])cc1	1100 µM
CCOP(=O)(OCC)C(C)(C)/[N+]([O-])=C/c1cc(O)cc(O)c1	4900 µM

Test system: A549
Assay: Cytotoxicity against human A549 cells assessed as reduction in cell viability measured after 48 hrs by luminescence-based ATP assay
Conditions: A549, 48 h

Structure (SMILES)	IC50
CCOP(=O)(OCC)C(C)(C)/[N+]([O-])=C/c1ccccc1C(F)(F)F	2700 µM
CCOP(=O)(OCC)C(C)(C)/[N+]([O-])=C/c1c(C)cccc1C	5300 µM
CCOP(=O)(OCC)C(C)(C)/[N+]([O-])=C/c1cccc(O)c1	8300 µM
CCOP(=O)(OCC)C(C)(C)/[N+]([O-])=C/c1cc(O)c(O)c(O)c1	600 µM
CCOP(=O)(OCC)C(C)(C)/[N+]([O-])=C/c1ccc([N+](=O)[O-])cc1	1000 µM
CCOP(=O)(OCC)C(C)(C)/[N+]([O-])=C/c1cc(O)cc(O)c1	7000 µM

Test system: A549
Assay: Cytotoxicity against human A549 cells assessed as reduction in cell viability measured after 48 hrs by MTT assay
Type: cell-based
Conditions: A549, 48 h

Structure (SMILES)	IC50
CCOP(=O)(OCC)C(C)(C)/[N+]([O-])=C/c1ccccc1C(F)(F)F	4200 µM
CCOP(=O)(OCC)C(C)(C)/[N+]([O-])=C/c1c(C)cccc1C	4400 µM
CCOP(=O)(OCC)C(C)(C)/[N+]([O-])=C/c1cccc(O)c1	7500 µM
CCOP(=O)(OCC)C(C)(C)/[N+]([O-])=C/c1cc(O)c(O)c(O)c1	700 µM
CCOP(=O)(OCC)C(C)(C)/[N+]([O-])=C/c1ccc([N+](=O)[O-])cc1	1200 µM
CCOP(=O)(OCC)C(C)(C)/[N+]([O-])=C/c1cc(O)cc(O)c1	7900 µM

Test system: not listed separately
Assay: Cytotoxicity against BAEC assessed as reduction in cell viability measured after 24 hrs by MTT assay
Design: species or system Bos taurus
Conditions: cattle

Structure (SMILES)	IC10
CCOP(=O)(OCC)C(C)(C)/[N+]([O-])=C/c1ccccc1C(F)(F)F	400 µM
CCOP(=O)(OCC)C(C)(C)/[N+]([O-])=C/c1c(C)cccc1C	500 µM
CCOP(=O)(OCC)C(C)(C)/[N+]([O-])=C/c1cccc(O)c1	800 µM
CCOP(=O)(OCC)C(C)(C)/[N+]([O-])=C/c1cc(O)c(O)c(O)c1	200 µM
CCOP(=O)(OCC)C(C)(C)/[N+]([O-])=C/c1ccc([N+](=O)[O-])cc1	< 100 µM
CCOP(=O)(OCC)C(C)(C)/[N+]([O-])=C/c1cc(O)cc(O)c1	600 µM
